Assay results reported in patent US8110583B2, “Tetrahydroquinoline derivatives” (Merck Patent GmbH, priority 2005, dated 2012).

Tested on: cells
Experiment: Cell cycle analysis (G2/M arrest)
Type: cell-based
Settings: single substances; no data given

For N=C(N)c1ccc(OCCCCCOc2ccc(C(=N)N)cc2)cc1 [pentamidine], the “effect on the cell cycle” value was “maintain cells in the G2/M cell cycle”.
